In test [1] the target is hGYS1 enzyme (recombinant hGYS1/GN1 protein) (Homo sapiens (Human), UniProt P13807). In words: GYS1 coupled enzyme assay (PK/LDH). The format is biochemical. Conditions: hGYS1/GN1 50 nM, UDP-Glucose 0.8 mM, G6P 1 mM; geometric mean of at least 2 runs.
The target of test [2] is hGYS2 enzyme (recombinant hGYS2/GN1 protein) (Homo sapiens (Human), UniProt P54840). In words: GYS2 coupled enzyme assay (PK/LDH). The format is biochemical. The settings on record: geometric mean of at least 2 assay runs on separate days, read-out: Avg_IC50. In short, it runs like this:
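Recombinant hGYS2/GN1 (200 nM) with 2 mM UDP-glucose, 0.2% rabbit liver glycogen, 2 mM glucose-6-phosphate; UDP coupled via PK/LDH (2 mM PEP, 0.6 mM NADH). Buffer 50 mM Tris pH 7.5, 2 mM MgCl2, 100 mM KCl, 2.5% DMSO. A340 slope over 10 min; IC50 from Hill fit of duplicates.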

Test [3] relates to hGYS1 enzyme / glycogen synthesis in HeLa cells. The experiment in a line: GYS1 cell based assay (glycogen synthesis, Glucose-glo). Set-up: species or system human. The settings on record: 24 h incubation, 20 mM glucose, geometric mean of at least 2 runs. In short, it runs like this: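 HeLa cells starved 24 h in medium containing only 1× Glutamax were plated onto compound in medium with 20 mM glucose (1% DMSO final) for 24 h, 37 °C, 5% CO2. Acid lysates were Tris-quenched, glucoamylase-digested (pH 5.3, 1 h, 37 °C) and read by Glucose-glo luminescence. IC50 came from Hill fits, as geometric mean of ≥2 runs.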

IC50 data for 19 compounds are collected here from patent publication US11814367B2, “Inhibitors of glycogen synthase 1 (GYS1) and methods of use thereof” (Maze Therapeutics, Inc., priority 2021, dated 2023).

hGYS2 enzyme (recombinant hGYS2/GN1 protein), sequence (P54840 whole entry): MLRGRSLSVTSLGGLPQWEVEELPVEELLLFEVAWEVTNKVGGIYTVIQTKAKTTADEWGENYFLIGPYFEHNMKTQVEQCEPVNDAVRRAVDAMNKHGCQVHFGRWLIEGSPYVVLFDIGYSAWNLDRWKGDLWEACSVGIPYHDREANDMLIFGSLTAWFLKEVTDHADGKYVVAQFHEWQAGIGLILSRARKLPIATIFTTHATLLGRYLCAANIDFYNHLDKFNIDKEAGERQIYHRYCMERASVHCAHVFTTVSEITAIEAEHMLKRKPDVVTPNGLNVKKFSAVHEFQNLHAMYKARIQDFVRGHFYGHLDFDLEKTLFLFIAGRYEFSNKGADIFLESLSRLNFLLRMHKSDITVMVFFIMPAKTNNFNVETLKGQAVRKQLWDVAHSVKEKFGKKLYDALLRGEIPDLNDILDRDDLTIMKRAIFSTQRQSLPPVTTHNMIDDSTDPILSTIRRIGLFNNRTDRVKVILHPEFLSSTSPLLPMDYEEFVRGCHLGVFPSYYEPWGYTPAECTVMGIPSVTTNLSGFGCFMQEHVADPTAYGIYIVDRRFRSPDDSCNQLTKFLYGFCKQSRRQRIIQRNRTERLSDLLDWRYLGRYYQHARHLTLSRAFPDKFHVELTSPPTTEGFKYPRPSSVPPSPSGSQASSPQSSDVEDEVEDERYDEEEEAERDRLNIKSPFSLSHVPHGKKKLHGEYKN
hGYS2 enzyme (recombinant hGYS2/GN1 protein), sequence (P46976 whole entry partner): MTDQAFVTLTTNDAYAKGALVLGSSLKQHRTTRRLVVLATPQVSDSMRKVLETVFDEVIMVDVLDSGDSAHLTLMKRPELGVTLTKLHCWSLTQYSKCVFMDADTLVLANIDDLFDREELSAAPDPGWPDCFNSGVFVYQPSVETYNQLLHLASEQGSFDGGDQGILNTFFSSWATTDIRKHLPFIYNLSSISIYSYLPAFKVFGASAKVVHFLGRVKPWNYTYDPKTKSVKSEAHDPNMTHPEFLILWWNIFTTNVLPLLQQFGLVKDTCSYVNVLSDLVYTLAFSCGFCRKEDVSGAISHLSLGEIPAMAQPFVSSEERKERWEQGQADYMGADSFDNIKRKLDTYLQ
hGYS1 enzyme (recombinant hGYS1/GN1 protein), sequence (P13807 whole entry): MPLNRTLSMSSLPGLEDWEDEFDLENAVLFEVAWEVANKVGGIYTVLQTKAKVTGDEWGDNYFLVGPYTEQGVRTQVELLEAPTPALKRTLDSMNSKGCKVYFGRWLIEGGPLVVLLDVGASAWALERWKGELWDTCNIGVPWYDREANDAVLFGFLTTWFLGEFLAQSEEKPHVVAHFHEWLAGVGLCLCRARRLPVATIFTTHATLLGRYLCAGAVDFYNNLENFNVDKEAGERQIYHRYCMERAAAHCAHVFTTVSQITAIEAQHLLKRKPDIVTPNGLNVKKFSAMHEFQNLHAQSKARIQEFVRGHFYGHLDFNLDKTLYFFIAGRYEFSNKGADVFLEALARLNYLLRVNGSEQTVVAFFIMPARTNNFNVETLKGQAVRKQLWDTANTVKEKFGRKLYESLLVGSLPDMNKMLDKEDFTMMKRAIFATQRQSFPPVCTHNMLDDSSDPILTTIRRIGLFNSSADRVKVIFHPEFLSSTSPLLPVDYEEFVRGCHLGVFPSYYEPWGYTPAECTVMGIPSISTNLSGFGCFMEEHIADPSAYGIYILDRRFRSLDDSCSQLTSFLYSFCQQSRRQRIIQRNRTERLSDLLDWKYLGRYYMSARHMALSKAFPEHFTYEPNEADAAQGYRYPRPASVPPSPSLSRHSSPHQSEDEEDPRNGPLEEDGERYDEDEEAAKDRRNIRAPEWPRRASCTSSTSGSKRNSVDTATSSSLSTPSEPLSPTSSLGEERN
hGYS1 enzyme (recombinant hGYS1/GN1 protein), sequence (P46976 whole entry partner): as the sequence (P46976 whole entry partner) above

For `CC(C)c1ccc([C@@H](NC(=O)[C@@H]2CC[C@H](C)N2C(=O)Cc2cnn[nH]2)c2ccccc2)nc1F` [Compound 416, (2S,5S)-N-[(S)-[6-fluoro-5-(propan-2-yl)pyridin-2-yl](phenyl)methyl]-5-methyl-1-[2-(1H-1,2,3-triazol-5-yl)acetyl]pyrrolidine-2-carboxamide], the IC50 was 25 nM in test [1]; above 100000 nM in test [2]; 470 nM in test [3] (Homo sapiens, HeLa, 24 h).
On the same counts, the results for `CC(C)c1ccc([C@@H](NC(=O)[C@@H]2C[C@@H](F)CN2C(=O)Cn2cc(C(F)(F)F)nn2)c2ccccc2)cc1F` [Compound 372, (2S,4R)-4-fluoro-N-[(S)-[3-fluoro-4-(propan-2-yl)phenyl](phenyl)methyl]-1-{2-[4-(trifluoromethyl)-1H-1,2,3-triazol-1-yl]acetyl}pyrrolidine-2-carboxamide] are 36 nM, above 100000 nM and 1100 nM.
In the case of `CC(C)c1ccc([C@@H](NC(=O)[C@@H]2C[C@@H](F)CN2C(=O)C(C)n2ccnc2)c2ccccc2)cc1F` (single isomer, unassigned) [Compound 768, (2S,4R)-4-fluoro-N-[(S)-[3-fluoro-4-(propan-2-yl)phenyl](phenyl)methyl]-1-[(2R) or (2S)-2-(1H-imidazol-1-yl)propanoyl]pyrrolidine-2-carboxamide], the IC50 was 121 nM in test [1], above 100000 nM in test [2] and 1230 nM in test [3].
As for `CCn1cc(CC(=O)N2C[C@H](F)C[C@H]2C(=O)N[C@@H](c2ccccc2)c2ccc(C(C)C)c(F)n2)ccc1=O` [Compound 792, (2S,4R)-1-[2-(1-ethyl-6-oxo-1,6-dihydropyridin-3-yl)acetyl]-4-fluoro-N-[(S)-[6-fluoro-5-(propan-2-yl)pyridin-2-yl](phenyl)methyl] pyrrolidine-2-carboxamide], the IC50 was 6 nM in test [1]; above 100000 nM in test [2]; 210 nM in test [3] (Homo sapiens, HeLa, 24 h).
In the case of `CC(C)c1ccc([C@@H](NC(=O)[C@@H]2C[C@@H](F)CN2C(=O)Cn2nncc2CN(C)C)c2ccccc2)cc1` [Compound 241, (2S,4R)-1-(2-{5-[(dimethylamino)methyl]-1H-1,2,3-triazol-1-yl}acetyl)-4-fluoro-N-[(S)-phenyl[4-(propan-2-yl)phenyl]methyl]pyrrolidine-2-carboxamide], the IC50 in test [1] is 82 nM; in test [2] it was above 100000 nM; in test [3] (Homo sapiens, HeLa, 24 h), 1140 nM.
Turning to `Cn1c(CC(=O)N2C[C@H](F)C[C@H]2C(=O)N[C@@H](c2ccccc2)c2ccc(C3(C)CC3)c(F)c2)cc2ccccc21` [Compound 561, (2S,4R)-4-fluoro-N-[(S)-[3-fluoro-4-(1-methylcyclopropyl)phenyl](phenyl)methyl]-1-[2-(1-methyl-1H-indol-2-yl)acetyl]pyrrolidine-2-carboxamide], the IC50 in test [1] is 36 nM; in test [2], above 100000 nM; in test [3] (Homo sapiens, HeLa, 24 h), 870 nM.
On the same counts, the results for `O=C(N[C@@H](c1ccccc1)c1ccc(C2CC2)c(F)n1)[C@@H]1C[C@@H](F)CN1C(=O)Cn1cccn1` [Compound 723, (2S,4R)-N-[(S)-(5-cyclopropyl-6-fluoropyridin-2-yl)(phenyl)methyl]-4-fluoro-1-[2-(1H-pyrazol-1-yl)acetyl]pyrrolidine-2-carboxamide] are 46 nM, above 100000 nM and 720 nM.
With `Cn1cc(CC(=O)N2C[C@H](F)C[C@H]2C(=O)N[C@@H](c2ccccc2)c2ccc(C3CC3)c(F)c2)c2ccccc21` [Compound 463, (2S,4R)-N-[(S)-(4-cyclopropyl-3-fluorophenyl)(phenyl)methyl]-4-fluoro-1-[2-(1-methyl-1H-indol-3-yl)acetyl]pyrrolidine-2-carboxamide], the IC50 in test [1] is 25 nM; in test [2], above 100000 nM; in test [3] (Homo sapiens, HeLa, 24 h) it was 670 nM.
As for `Cc1nn(CC(=O)N2C[C@H](F)C[C@H]2C(=O)N[C@@H](c2ccccc2)c2ccc(C3CC(F)(F)C3)cn2)c(=O)o1` [Compound 541, (2S,4R)-N-[(S)-[5-(3,3-difluorocyclobutyl)pyridin-2-yl](phenyl)methyl]-4-fluoro-1-[2-(5-methyl-2-oxo-2,3-dihydro-1,3,4-oxadiazol-3-yl)acetyl]pyrrolidine-2-carboxamide], the IC50 in test [1] was 55 nM; in test [2], above 100000 nM; in test [3] (Homo sapiens, HeLa, 24 h), 650 nM.
On to `Cc1cc(CC(=O)N2C[C@H](F)C[C@H]2C(=O)N[C@@H](c2ccccc2)c2ccc(C3CC(F)(F)C3)c(F)n2)c[nH]c1=O` [Compound 522, (2S,4R)-N-[(S)-[5-(3,3-difluorocyclobutyl)-6-fluoropyridin-2-yl](phenyl)methyl]-4-fluoro-1-[2-(5-methyl-6-oxo-1,6-dihydropyridin-3-yl)acetyl]pyrrolidine-2-carboxamide], for which the IC50 is 5 nM in test [1]; above 100000 nM in test [2]; 450 nM in test [3] (Homo sapiens, HeLa, 24 h).
In the case of `CC1(c2ccc([C@@H](NC(=O)[C@@H]3C[C@@H](F)CN3C(=O)Cc3cnn[nH]3)c3ccccc3)cc2F)CC1` [Compound 558, (2S,4R)-4-fluoro-N-[(S)-[3-fluoro-4-(1-methylcyclopropyl)phenyl](phenyl)methyl]-1-[2-(1H-1,2,3-triazol-5-yl)acetyl]pyrrolidine-2-carboxamide], the IC50 was 136 nM in test [1]; above 100000 nM in test [2]; 2460 nM in test [3] (Homo sapiens, HeLa, 24 h).
The corresponding values for `Cc1cn(CC(=O)N2C[C@H](F)C[C@H]2C(=O)N[C@@H](c2ccccc2)c2ccc(C3(C)CC3)c(F)c2)c(=O)[nH]c1=O` [Compound 556, (2S,4R)-4-fluoro-N—((S)-(3-fluoro-4-(1-methylcyclopropyl)phenyl)(phenyl)methyl)-1-(2-(5-methyl-2,4-dioxo-3,4-dihydropyrimidin-1(2H)-yl)acetyl)pyrrolidine-2-carboxamide] are 27 nM, above 100000 nM and 760 nM.
Consider `CN(C)C(=O)NCC(=O)N1C[C@H](F)C[C@H]1C(=O)N[C@@H](c1ccccc1)c1ccc(C2CC(F)(F)C2)cn1` [Compound 532, (2S,4R)—N—((S)-(5-(3,3-difluorocyclobutyl)pyridin-2-yl)(phenyl)methyl)-1-((dimethylcarbamoyl)glycyl)-4-fluoropyrrolidine-2-carboxamide], for which the IC50 is 65 nM in test [1]; above 100000 nM in test [2]; 1180 nM in test [3] (Homo sapiens, HeLa, 24 h).
As for `CC(C)c1ccc([C@@H](NC(=O)[C@@H]2C[C@@H](F)CN2C(=O)Cc2nn(C)c(=O)n2C)c2ccccc2)nc1` [Compound 710, (2S,4R)-1-[2-(1,4-dimethyl-5-oxo-4,5-dihydro-1H-1,2,4-triazol-3-yl)acetyl]-4-fluoro-N-[(S)-phenyl[5-(propan-2-yl)pyridin-2-yl]methyl]pyrrolidine-2-carboxamide], the IC50 in test [1] is 146 nM; in test [2], above 100000 nM; in test [3] (Homo sapiens, HeLa, 24 h), 2340 nM.
As for `CC(C)c1c(F)cc(C(NC(=O)[C@@H]2C[C@@H](F)CN2C(=O)Cc2cnn[nH]2)c2ccccc2)cc1F` (single isomer, unassigned) [Compound 667, (2S,4R)-N-[(S) or (R)-[3,5-difluoro-4-(propan-2-yl)phenyl](phenyl)methyl]-4-fluoro-1-[2-(1H-1,2,3-triazol-5-yl)acetyl]pyrrolidine-2-carboxamide], the IC50 is 23 nM in test [1]; above 100000 nM in test [2]; 290 nM in test [3] (Homo sapiens, HeLa, 24 h).
The corresponding values for `CCn1cc(NCC(=O)N2C[C@H](F)C[C@H]2C(=O)N[C@@H](c2ccccc2)c2ccc(C3CC3)c(F)c2)nn1` [Compound 469, (2S,4R)-N-[(S)-(4-cyclopropyl-3-fluorophenyl)(phenyl)methyl]-1-{2-[(1-ethyl-1H-1,2,3-triazol-4-yl)amino]acetyl}-4-fluoropyrrolidine-2-carboxamide] are 61 nM, above 100000 nM and 1180 nM.
In the case of `CC(C)c1ccc([C@@H](NC(=O)[C@@H]2C[C@@H](F)CN2C(=O)CNC(=O)N2CCN(CC(F)(F)F)CC2)c2ccccc2)nc1` [Compound 281, N-{2-[(2S,4R)-4-fluoro-2-{[(S)-phenyl[5-(propan-2-yl)pyridin-2-yl]methyl]carbamoyl}pyrrolidin-1-yl]-2-oxoethyl}-4-(2,2,2-trifluoroethyl)piperazine-1-carboxamide], the IC50 is 59 nM in test [1]; above 100000 nM in test [2]; 1560 nM in test [3] (Homo sapiens, HeLa, 24 h).
Consider `CC(C)c1ccc([C@@H](NC(=O)[C@@H]2C[C@@H](F)CN2C(=O)Cn2cc(C(F)(F)F)cn2)c2ccccc2)nc1F` [Compound 788], for which the IC50 is 20 nM in test [1]; above 100000 nM in test [2]; 340 nM in test [3] (Homo sapiens, HeLa, 24 h).
With `CC(C)c1ccc([C@@H](NC(=O)[C@@H]2C[C@@H](F)CN2C(=O)Cc2ncco2)c2ccccc2)nc1F` [Compound 407, (2S,4R)-4-fluoro-N-[(S)-[6-fluoro-5-(propan-2-yl)pyridin-2-yl](phenyl)methyl]-1-[2-(1,3-oxazol-2-yl)acetyl]pyrrolidine-2-carboxamide], the IC50 is 15 nM in test [1]; above 100000 nM in test [2]; 420 nM in test [3] (Homo sapiens, HeLa, 24 h).
